Measured values from patent publication US20210246157A1, “CAMPTOTHECIN DERIVATIVES AND PREPARATION METHODS AND APPLICATIONS THEREOF” (priority 2018, published 2021).
In brackets after ≈: the same amount, converted by molar mass. Where two headings read alike, the source gives them in different places.

What was measured:
[1] = Solubility test, equilibrium method, UV-visible spectrophotometry; assay type: physicochemical; conditions: thermodynamic from solid
Summary of the method: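 Equilibrium solubility measured by UV-visible spectrophotometry. Reference solution of known concentration (C0) prepared in methanol; test concentration calculated as Cx=(Ax/A0)C0 from absorbance ratio of test to reference solution.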

[2] = system: colon cancer cells SW-480; experiment: In vivo antitumor activity, tumor volume (Example 19); design: species or system mice; conditions: for Mouse Tumor Volume: 12.30 mg/kg i.v. once every three days, average, n = 6
[3] = In vivo antitumor activity study, mouse weight (Example 19); design: species or system mice; conditions: 12.30 mg/kg i.v. once every three days
[4] = Multi-dose in vivo antitumor activity study, mouse weight (Example 20); design: species or system mice; conditions: caudal vein once every 2 days
Description: The drugs are administered through the caudal veins of mice once every 2 days for a total of 7 times.
At the end of the treatment cycle, the orbital venous blood of the mice is collected for later blood routine test, the mice are killed by cervical dislocation method, and tumors are removed immediately and photographed. From day 0, the mice in each group are weighed every three days, and the weights are recorded. The weight average value of each group is calculated, and mouse weight variation curve is drawn according to statistical data. At the end of the treatment cycle, tumors are removed from anesthetized mice immediately and weighted, and the tumor weight of each group is recorded. The tumor inhibition rate (%) is calculated according to the following formula: […]

[5] = system: SW-480; experiment: Cytotoxicity test (MTT, 72 h); conditions: Homo sapiens, SW480, 72 h, read-out: 50% Inhibiting Concentration value (IC50)
Description: (§1) Cells at logarithmic growth period are inoculated in a 96-well plate overnight, then drugs with a certain gradient concentrations are added, and incubation is carried out in a cell culture chamber (5% CO2, 37° C.) for 72 h.

[6] = system: HT-29; experiment: Cytotoxicity test (MTT, 72 h); conditions: Homo sapiens, HT-29, 72 h, read-out: 50% Inhibiting Concentration value (IC50)
Description: as §1

[7] = system: HCT-116; experiment: Cytotoxicity test (MTT, 72 h); conditions: Homo sapiens, HCT-116, 72 h, read-out: 50% Inhibiting Concentration value (IC50)
Description: (§2) In order to investigate the antitumor activities of the compounds, a variety of tumor cell lines for test are selected. Cells at logarithmic growth period are inoculated in a 96-well plate overnight, then drugs with a certain gradient concentrations are added, and incubation is carried out in a cell culture chamber (5% CO2, 37° C.) for 72 h.

[8] = system: A549; experiment: Cytotoxicity test (MTT, 72 h); conditions: Homo sapiens, A549, 72 h, read-out: 50% Inhibiting Concentration value (IC50)
Description: as §2

[9] = system: H1975; experiment: Cytotoxicity test (MTT, 72 h); conditions: Homo sapiens, NCI-H1975, 72 h, read-out: 50% Inhibiting Concentration value (IC50)
Description: as §2

[10] = system: HepG2; experiment: Cytotoxicity test (MTT, 72 h); conditions: Homo sapiens, HepG2, 72 h, read-out: 50% Inhibiting Concentration value (IC50)
Description: as §2

[11] = system: BGC-823; experiment: Cytotoxicity test (MTT, 72 h); conditions: Homo sapiens, BGC-823, 72 h, read-out: 50% Inhibiting Concentration value (IC50)
Description: as §2

[12] = system: ECA-109; experiment: Cytotoxicity test (MTT, 72 h); conditions: Homo sapiens, ECa-109, 72 h, read-out: 50% Inhibiting Concentration value (IC50)
Description: as §2

[13] = system: K562; experiment: Cytotoxicity test (MTT, 72 h); conditions: Homo sapiens, K562, 72 h, read-out: 50% Inhibiting Concentration value (IC50)
Description: as §2

[14] = system: PC3; experiment: Cytotoxicity test (MTT, 72 h); conditions: Homo sapiens, PC-3, 72 h, read-out: 50% Inhibiting Concentration value (IC50)
Description: as §2

[15] = system: 143B; experiment: Cytotoxicity test (MTT, 72 h); conditions: Homo sapiens, read-out: 50% Inhibiting Concentration value (IC50)
Description: as §2

[16] = system: Hela; experiment: Cytotoxicity test (MTT, 72 h); conditions: Homo sapiens, read-out: 50% Inhibiting Concentration value (IC50)
Description: as §2

[17] = system: TPC-1; experiment: Cytotoxicity test (MTT, 72 h); conditions: Homo sapiens, TPC1, 72 h, read-out: 50% Inhibiting Concentration value (IC50)
Description: as §1

[18] = system: SKOV-3; experiment: Cytotoxicity test (MTT, 72 h); conditions: Homo sapiens, SK-OV-3, 72 h, read-out: 50% Inhibiting Concentration value (IC50)
Description: as §1

[19] = system: PANC-1; experiment: Cytotoxicity test (MTT, 72 h); conditions: Homo sapiens, PANC-1, 72 h, read-out: 50% Inhibiting Concentration value (IC50)
Description: as §1

SMILES: CCc1c2c(nc3ccc(OC(=O)NCCOCc4cn(CCO[C@H]5O[C@@H](CO)[C@H](O)[C@@H](O)[C@@H]5O)nn4)cc13)-c1cc3c(c(=O)n1C2)COC(=O)[C@]3(O)CC [Compound 67]
- solubility ([1]; aqueous buffer, PBS pH 7.4, read-out: Solubility in PBS (pH = 7.4)): 2110 µg/mL (≈ 2750 µM)
- solubility ([1]; aqueous with cosolvent or surfactant or cyclodextrin, 0.1% aqueous solution of Tween-80, read-out: Solubility in 0.1% Tween-80): 1480 µg/mL (≈ 1930 µM)
- solubility ([1]; saline or isotonic, normal saline, read-out: Solubility in Normal Saline (NS)): 3350 µg/mL (≈ 4370 µM)
- solubility ([1]; water, read-out: Solubility in Water): 1260 µg/mL (≈ 1650 µM)
- Mouse Tumor Volume ([2]; day 0): 227.31 mm^3
- Mouse Tumor Volume ([2]; day 3): 126.54 mm^3
- Mouse Tumor Volume ([2]; day 6): 142.84 mm^3
- Mouse Tumor Volume ([2]; day 9): 104.75 mm^3
- Mouse Tumor Volume ([2]; day 12): 73.72 mm^3
- Mouse Tumor Volume ([2]; day 15): 43.74 mm^3
- Mouse Tumor Volume ([2]; day 18): 12.46 mm^3
- Mouse Tumor Volume ([2]; day 21): 11.38 mm^3
- inhibition rates on colon cancer cell SW-480 compared with CPT-11 (in words) ([2]; dosage two-thirds of the molar fraction of CPT-11): significantly higher inhibition rates
- Mouse Weight ([3]; day 0): 23.97 g
- Mouse Weight ([3]; day 3): 23.97 g
- Mouse Weight ([3]; day 6): 23.57 g
- Mouse Weight ([3]; day 9): 23.94 g
- Mouse Weight ([3]; day 12): 23.58 g
- Mouse Weight ([3]; day 15): 24.45 g
- Mouse Weight ([3]; day 18): 24.86 g
- Mouse Weight ([3]; day 21): 25.33 g
- Mouse Weight ([4]; day 0, high-dose group (H) 12.30 mg/kg): 17.04 g
- Mouse Weight ([4]; day 0, low-dose group (L) 3.075 mg/kg): 16.18 g
- Mouse Weight ([4]; day 0, medium-dose group (M) 6.15 mg/kg): 18.28 g
- Mouse Weight ([4]; day 3, high-dose group (H) 12.30 mg/kg): 16.15 g
- Mouse Weight ([4]; day 3, low-dose group (L) 3.075 mg/kg): 16.28 g
- Mouse Weight ([4]; day 3, medium-dose group (M) 6.15 mg/kg): 17.29 g
- Mouse Weight ([4]; day 6, high-dose group (H) 12.30 mg/kg): 16.88 g
- Mouse Weight ([4]; day 6, low-dose group (L) 3.075 mg/kg): 15.76 g
- Mouse Weight ([4]; day 6, medium-dose group (M) 6.15 mg/kg): 16.82 g
- Mouse Weight ([4]; day 9, high-dose group (H) 12.30 mg/kg): 16.57 g
- Mouse Weight ([4]; day 9, low-dose group (L) 3.075 mg/kg): 16.28 g
- Mouse Weight ([4]; day 9, medium-dose group (M) 6.15 mg/kg): 17.18 g
- Mouse Weight ([4]; day 12, high-dose group (H) 12.30 mg/kg): 16.06 g
- Mouse Weight ([4]; day 12, low-dose group (L) 3.075 mg/kg): 16.03 g
- Mouse Weight ([4]; day 12, medium-dose group (M) 6.15 mg/kg): 16.74 g
- Mouse Weight ([4]; day 15, high-dose group (H) 12.30 mg/kg): 16.32 g
- Mouse Weight ([4]; day 15, low-dose group (L) 3.075 mg/kg): 16.04 g
- Mouse Weight ([4]; day 15, medium-dose group (M) 6.15 mg/kg): 15.82 g
- Mouse Weight ([4]; day 18, high-dose group (H) 12.30 mg/kg): 17.36 g
- Mouse Weight ([4]; day 18, low-dose group (L) 3.075 mg/kg): 16.17 g
- Mouse Weight ([4]; day 18, medium-dose group (M) 6.15 mg/kg): 16.27 g
- Mouse Weight ([4]; day 21, high-dose group (H) 12.30 mg/kg): 16.78 g
- Mouse Weight ([4]; day 21, low-dose group (L) 3.075 mg/kg): 16.48 g
- Mouse Weight ([4]; day 21, medium-dose group (M) 6.15 mg/kg): 16.84 g
- IC50 [5]: 0.251 µM
- IC50 [6]: 5.19 µM
- IC50 [7]: 0.235 µM
- IC50 [8]: 2.42 µM
- IC50 [9]: 6.73 µM
- IC50 [10]: 1.05 µM
- IC50 [11]: 0.209 µM
- IC50 [12]: 4.32 µM
- IC50 [13]: 0.196 µM
- IC50 [14]: 2.02 µM
- IC50 [15]: 5.61 µM
- IC50 [16]: 2.91 µM
- IC50 [17]: 8.08 µM
- IC50 [18]: 1.26 µM
- IC50 [19]: 2.91 µM
